Measurements reported in patent US5962487A, “Antipicornaviral compounds and methods for their use and preparation” (Agouron Pharmaceuticals, Inc., priority 1997, dated 1999).
Read-outs that look alike come from different tables or passages of the source.

What was measured:
[1] = test system: CVA-21; test: Anticoxsackieviral HI-HeLa Cell Culture Assay, CVA-21; format: cell-based, Coxsackie strain A-21; details: for EC50: 24 h, CVA-21 infection of Hi-HeLa cells, XTT, one day
Protocol: (§1) The ability of compounds to protect cells against CVA-21 or CVB-3 infection was measured by the XTT dye reduction method. Briefly, HI-HeLa cells were infected with CVA-21 or CVB-3 at a multiplicity of infection (m.o.i.) of 0.05 (CVA-21) and 0.08 (CVB-3) or mock-infected with medium only. Infected or uninfected cells were resuspended at 4×10^4 cells per mL and incubated with appropriate concentrations of drug. One day later, XTT/PMS was added to test plates, and the amount of formazan produced was quantified spectrophotometrically at 450/650 nm. The EC50 was calculated as the concentration of drug that increased the percentage of formazan production in drug-treated, virus-infected cells to 50% of that produced by drug-free, uninfected cells. The 50% cytotoxic dose (CC50) was calculated as the concentration of drug that decreased the percentage of formazan produced in drug-treated, uninfected cells to 50% of that produced in drug-free, uninfected cells. The therapeutic index (TI) was calculated by dividing the CC50 by the EC50.
(§2) The Coxsackie strains A-21 (CVA-21) and B-3 (CVB-3) were purchased from American Type Culture Collection (ATCC). Virus stocks were propagated and antiviral assays were performed in HI-HeLa cells (ATCC). Cells were grown in Minimal Essential Medium with 10% fetal bovine serum.

[2] = test system: ECHO-11; test: Echovirus-11 MRC5 Cell Culture Assay; format: cell-based, Echovirus strain 11; details: for EC50: Echovirus, 24 h, ECHO-11 infection of MRC5 cells, XTT, one day
Protocol: (§3) The Echovirus strain 11 (ECHO-11) and Enterovirus strain 70 (ENT-70) were purchased from American Type Culture Collection (ATCC). Virus stocks were propagated and antiviral assays were performed in MRC5 cells (ATCC). Cells were grown in Minimal Essential Medium with 10% fetal bovine serum.
as §1, with “ECHO-11” for “CVA-21”, “ENT-70” for “CVB-3”, “MRC5” for “HI-HeLa”, “0.0013 (ECHO-11)” for “0.05 (CVA-21)”, “0.0017 (ENT-70)” for “0.08 (CVB-3)”, “2×10^4” for “4×10^4”

[3] = in vitro; format: cell-based; details: human, hi-hela cells
Outline: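 HI-HeLa cells infected with HRV-14 at m.o.i. 0.13 or mock-infected, incubated with compounds for two days; XTT/PMS formazan read at 450/650 nm. EC50 as concentration restoring formazan to 50% of mock-infected level; CC50 from mock-infected cells; TI = CC50/EC50.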

[4] = test system: MRC5 cells; test: in vitro; format: cell-based
Protocol: as §3
as §1, with “ECHO-11” for “CVA-21”, “ENT-70” for “CVB-3”, “MRC5” for “HI-HeLa”, “0.0013 (ECHO-11)” for “0.05 (CVA-21)”, “0.0017 (ENT-70)” for “0.08 (CVB-3)”, “2×10^4” for “4×10^4”

[5] = in vitro; format: cell-based; details: human, mrc5 cells
Protocol: as §3
as §1, with “ECHO-11” for “CVA-21”, “ENT-70” for “CVB-3”, “MRC5” for “HI-HeLa”, “0.0013 (ECHO-11)” for “0.05 (CVA-21)”, “0.0017 (ENT-70)” for “0.08 (CVB-3)”, “2×10^4” for “4×10^4”

[6] = test system: HRV-14; test: Antirhinoviral HI-HeLa Cell Culture Assay (cell protection, XTT), HRV-14; format: cell-based, human rhinovirus; details: for TI: CC50/EC50, HRV serotype-14, 2880 min; for EC50: Rhinovirus B, HRV14, 48 h, HRV serotype-14 infected HI-HeLa cells, XTT, two days
Outline: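 Read-out is XTT/PMS formazan at 450/650 nm, measured two days after compound exposure of HI-HeLa cells (8×10^5 cells/mL) infected at m.o.i. 0.13 or mock-infected. EC50: protection to 50% of compound-free mock-infected signal; CC50: 50% loss in mock-infected cells; TI is their ratio.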

[7] = test system: HI-HeLa cells; test: in vitro; format: cell-based; details: human, 24 h
Protocol: as §1, §2

[8] = in vitro; format: cell-based; details: human, hi-hela cells; remark: listed apart in the source
Protocol: as §1, §2

[9] = test system: CVB-3; test: Anticoxsackieviral HI-HeLa Cell Culture Assay, CVB-3; format: cell-based, Coxsackie strain B-3; details: 24 h; CVB-3 infection of Hi-HeLa cells, XTT, one day
Protocol: as §1, §2

[10] = test system: ENT-70; test: Enterovirus-70 MRC5 Cell Culture Assay; format: cell-based, Enterovirus strain 70; details: for EC50: Enterovirus, 24 h, ENT-70 infection of MRC5 cells, XTT, one day
Protocol: as §3
as §1, with “ECHO-11” for “CVA-21”, “ENT-70” for “CVB-3”, “MRC5” for “HI-HeLa”, “0.0013 (ECHO-11)” for “0.05 (CVA-21)”, “0.0017 (ENT-70)” for “0.08 (CVB-3)”, “2×10^4” for “4×10^4”

[11] = test system: HRV 10; test: Antirhinoviral HI-HeLa Cell Culture Assay (cell protection, XTT), HRV 10; format: cell-based, human rhinovirus
Protocol: (§4) In the Cell Protection Assay, the ability of compounds to protect cells against HRV infection was measured by the XTT dye reduction method. This method is described in O. S. Weislow, R. Kiser, D. L. Fine, J. Bader, R. H. Shoemaker, and M. R. Boyd, J. Natl. Cancer Inst. 1989, 81, 577-586, which document is entirely incorporated herein by reference.
(§5) HI-HeLa cells were infected with HRV-14 (unless otherwise noted) at a multiplicity of infection (m.o.i.) of 0.13 (virus particles/cell) or mock-infected with medium only. Infected or mock-infected cells were resuspended at 8×10^5 cells per mL and incubated with appropriate concentrations of compounds of formulas I and II. Two days later, XTT/PMS was added to test plates, and the amount of formazan produced was quantified spectrophotometrically at 450/650 nm. The EC50 was calculated as the concentration of compound that increased the percentage of formazan production in compound-treated, virus-infected cells to 50% of that produced by compound-free mock-infected cells. The 50% cytotoxic dose (CC50) was calculated as the concentration of compound that decreased the percentage of formazan produced in compound-treated, mock-infected cells to 50% of that produced in compound-free, mock-infected cells. The therapeutic index (TI) was calculated by dividing the CC50 by the EC50. […]

[12] = target: T1, Rhinovirus 3C protease (RVP) serotype-14 (Human rhinovirus 14, UniProt P03303); test: Inhibition of Rhinovirus Protease, serotype 14 (FRET assay); format: biochemical; details: for kinact/KI: read-out: kobs/I; for Ki: RVP serotype-14, 10 minute preincubation with 50 nM RVP prior to addition of substrate, read-out: INHIB (Ki)
T1 construct: Recombinant Rhinovirus 3C proteases from serotypes 14, 16, 2 or 89 were prepared; made in house
Outline: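 Recombinant HRV 3C protease (50–100 nM) in 50 mM tris pH 7.6, 1 mM EDTA, 2% DMSO, with ~1 μM DABCYL-GRAVFQGPVG-EDANS FRET substrate; cleavage read as fluorescence increase. Ki: compound and enzyme preincubated 10 min at 30° C before substrate start; kobs/I from enzyme-start progress curves. Values are percent inhibition at stated μM, or Ki.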

[13] = test system: HRV 1A; test: Antirhinoviral HI-HeLa Cell Culture Assay (cell protection, XTT), HRV 1A; format: cell-based, human rhinovirus
Protocol: as §4, §5

[14] = target: T2, Rhinovirus 3C protease (RVP) serotype 16 (Human rhinovirus 16, UniProt Q82122); test: Inhibition of Rhinovirus Protease, serotype 16 (FRET assay); format: biochemical; details: enzyme start experiments, read-out: kobs/I
T2 construct: Recombinant Rhinovirus 3C proteases from serotypes 14, 16, 2 or 89 were prepared; made in house
Protocol: (§6) Stock solutions (50 mM, in DMSO) of various compounds were prepared; dilutions were in the same solvent. Recombinant Rhinovirus 3C proteases from serotypes 14, 16, 2 or 89 were prepared by the following standard chromatographic procedures: (1) ion exchange using Q Sepharose Fast Flow from Pharmacia; (2) affinity chromatography using Affi-Gel Blue from Biorad; and (3) sizing using Sephadex G-100 from Pharmacia. Assays contained 2% DMSO, 50 mM tris pH 7.6, 1 mM EDTA, a compound at the indicated concentrations, approximately 1 μM substrate, and 50-100 nM protease. For Ki determinations, the compound and the enzyme were preincubated for 10 minutes at 30° C. prior to addition of the substrate (substrate start). The kobs/I values were obtained from reactions initiated by addition of enzyme rather than substrate. RVP activity is measured in the fluorescence resonance energy transfer assay. The substrate was (N-terminal) DABCYL-(Gly-Arg-Ala-Val-Phe-Gln-Gly-Pro-Val-Gly)-EDANS. In the uncleaved peptide, the EDANS fluorescence was quenched by the proximal DABCYL moiety. When the peptide was cleaved, the quenching was relieved, and activity was measured as an increase in fluorescence signal.
(§7) In the above table, all data is for RVP serotype-14 unless otherwise noted in parentheses. All strains of human rhinovirus (HRV) were purchased from American Type Culture Collection (ATCC), except for serotype 14, which was produced from the infectious cDNA clone constructed and supplied to us by Dr. Roland Rueckert at the Institute for Molecular Virology, University of Wisconsin, Madison, Wis. The column designated INHIB represents the percent inhibition, with the concentration of the compound in μM indicated in parentheses, unless Ki was assigned as designated by (Ki), at 10 minute preincubation with 50 nM RVP prior to addition of substrate was used. The data in the column designated kobs/I was measured from progress curves in enzyme start experiments.

[15] = target: T3, Rhinovirus 3C protease (RVP) serotype 2 (Human rhinovirus 2, UniProt P04936); test: Inhibition of Rhinovirus Protease, serotype 2 (FRET assay); format: biochemical; details: enzyme start experiments, read-out: kobs/I
T3 construct: Recombinant Rhinovirus 3C proteases from serotypes 14, 16, 2 or 89 were prepared; made in house
Protocol: as §6, §7

T2 sequence (Q82122 1511-1693): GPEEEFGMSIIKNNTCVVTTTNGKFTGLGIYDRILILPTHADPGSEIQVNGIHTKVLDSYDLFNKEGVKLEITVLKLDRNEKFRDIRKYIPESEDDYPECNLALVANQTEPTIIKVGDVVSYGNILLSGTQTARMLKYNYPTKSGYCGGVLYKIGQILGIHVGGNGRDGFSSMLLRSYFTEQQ
T3 sequence (P04936 1508-1690): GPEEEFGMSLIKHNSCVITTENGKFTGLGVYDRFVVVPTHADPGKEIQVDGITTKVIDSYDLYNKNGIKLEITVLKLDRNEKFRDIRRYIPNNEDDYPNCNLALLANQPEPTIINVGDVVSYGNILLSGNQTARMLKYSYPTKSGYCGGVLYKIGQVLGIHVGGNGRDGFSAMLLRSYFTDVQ
T1 sequence (P03303 1538-1719): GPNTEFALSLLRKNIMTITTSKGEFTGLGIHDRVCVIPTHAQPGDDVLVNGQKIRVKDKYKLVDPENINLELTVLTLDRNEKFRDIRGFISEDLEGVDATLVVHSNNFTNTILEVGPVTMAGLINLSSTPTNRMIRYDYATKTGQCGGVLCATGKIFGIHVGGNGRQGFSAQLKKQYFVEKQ

| Structure (SMILES) | CC50 at 48 h [3] [µM] | TI [6] | EC50 [6] [µM] | kinact/KI [12] [M⁻¹ s⁻¹] | kinact/KI [14] [M⁻¹ s⁻¹] | Ki [12] [µM] | kinact/KI [15] [M⁻¹ s⁻¹] | also measured |
| --- | --- | --- | --- | --- | --- | --- | --- | --- |
| CCOC(=O)c1ccc(OCCC2CCN(c3ccc(C)nn3)CC2)cc1 [Pirodavir, reference compound] | > 10 | > 300 | 0.03 | – | – | – | – | EC50 [1]: > 100 µM; EC50 [2]: > 100 µM; CC50 ([4]; human, mrc5 cells, 24 h): > 100 µM; CC50 at 24 h [5]: > 100 µM; CC50 [7]: > 100 µM; CC50 at 24 h [8]: > 100 µM; EC50 [9]: > 100 µM; EC50 [10]: > 100 µM |
| CCOC(=O)/C=C/[C@H](CCC(N)=O)NC(=O)[C@H](Cc1ccccc1)N(C)C(=O)[C@H](CC(C)C)NC(=O)c1cc(C)on1 [Compound 59] | > 100 | > 714 | 0.14 | 108000 | – | – | – | TI ([11]; CC50/EC50, HRV 10, 2880 min): > 250; EC50 ([11]; Human rhinovirus sp., HRV 10 infected HI-HeLa cells): 0.4 µM; TI ([13]; CC50/EC50, HRV 1A, 2880 min): > 250; EC50 ([13]; Human rhinovirus sp., HRV 1A infected HI-HeLa cells): 0.4 µM |
| CCOC(=O)/C(C)=C/[C@H](CCC(N)=O)NC(=O)[C@H](Cc1ccccc1)N(C)C(=O)[C@H](CC(C)C)NC(=O)SCc1ccccc1 [Compound 16, Ethyl-2-Methyl-3-(Benzylthiocarbonyl-L-Leu-L-N-Me-Phe-L-Gln)-E-Propenoate] | 32 | 19 | 1.7 | 8300 | 1000 | 12 | 600 | – |
| CCOC(=O)/C=C/[C@H](CCC(N)=O)NC(=O)[C@H](Cc1ccc(OC)cc1)N(C)C(=O)[C@H](CC(C)C)NC(=O)SCC [Compound 4] | 200 | 870 | 0.23 | 43800 | 2010 | 2.9 | 541 | EC50 [1]: 1.8 µM; TI ([1]; CC50/EC50, CVA-21): 111; TI ([2]; CC50/EC50, ECHO-11, 1440 min): 62.5; EC50 [2]: 3.2 µM; CC50 [4]: 200 µM; CC50 at 24 h [5]: 200 µM; CC50 at 24 h [8]: 200 µM; TI ([10]; CC50/EC50, ENT-70, 1440 min): 667; EC50 [10]: 0.3 µM |
| CCOC(=O)/C=C/[C@H](CCC(N)=O)NC(=O)[C@H](Cc1ccc(OC)cc1)N(C)C(=O)[C@H](CC(C)C)NC(=O)OCc1ccccc1 [Compound 3, Ethyl-3-[CBZ-L-Leu-L-N-Me-(OMe)-Tyr-L-Gln]-E-Propenoate] | 41.7 | 232 | 0.18 | 16600 | 929 | 12 | 292 | – |
| CCOC(=O)/C=C/[C@H](CCC(N)=O)NC(=O)[C@@H]1CCc2ncc(NC(=O)OCc3ccccc3)c(=O)n21 [Compound 37, Ethyl-3-[(S)-3-(CBZ-Amino)4-Oxo-4,6,7,8-Tetrahydropyrrolo [1,2-α]Pyrimidine-6-L-Gln]-E-Propenoate] | > 100 | > 11 | 8.9 | 12400 | 4000 | – | 2500 | – |
| CCOC(=O)/C=C/[C@H](CCC(N)=O)NC(=O)[C@@H]1CCCCN1C(=O)[C@H](CC(C)C)NC(=O)OCc1ccccc1 [Compound 25, Ethyl-3-[CBZ-L-Leu-L-Pip-L-Gln]-E-Propenoate] | > 320 | > 23 | 14 | 1470 | 770 | – | 1280 | – |
